Assay results from US10507212B2, “Method for use of homopiperazinium compounds in the treatment of cancer” (UNIVERSITÉ LAVAL, priority 2014, dated 2019).
Like-named read-outs stand apart in the source and are kept apart here.

What was measured:
Format in all cases: cell-based
[1] = system: H520 squamous cell carcinoma; experiment: Cell proliferation assay, H520 (MTT); details: for IC50: Tosylate
Description: In vitro experiments were conducted on four cancer cell lines: the A549 adenocarcinoma cell line, the H520 squamous cell carcinoma the H82 small cell lung carcinoma and Calu 3 lung adenocarcinoma. The A549 tumor cells, were plated at a density of 1.5×10^4 cells per mL and let to adhere on 96-well microplates in F12K cell culture medium enriched with 10% fetal calf serum (FCS). The H520, H82 and Calu 3 tumor cells were plated at a density of 5×10^4 cells per mL in RPMI+10% FCS. After 24 h in culture, the medium was changed and cells were exposed to ASM-024 at concentrations ranging from 10^−7M to 10^−3M (FIGS. 1A-1C). After 3 and 6 days in culture, cell growth was quantified using the MTT colorimetric assay (M2128, Sigma) at 575-690 nm or the Cell Titer fluorescence assay (G8080, Promega) at 560/590 nm.
In an another set of experiments, a series of 16 other homopiperazinium compounds, in addition to ASM-024, were tested for their anti-proliferative effect on the four tumor cell lines described above after up to 6 days in culture at concentrations of 10^-7M to 10^-3M. (FIGS. 4A-4E) Cell growth was quantified using the MTT colorimetric assay for the A-549, H520 and Calu 3 cell lines and the CellTiter Fluorescence assay.for the H82 tumor cell line These are established method of determining viable cell number in proliferation studies.

[2] = system: MDA-MB-231; experiment: Anti-proliferative MTT assay, MDA-MB-231; details: Homo sapiens
Description: (§1) The effect of ASM-024 on the growth of MCF7, SK-BR-3, MDA-MB-231, BT-474 (mammary adenocarcinomas), SK-OV/3 (ovary adenocarcinoma), PC3 (prostate adenocarcinoma) SK-MEL-28(skin melanoma) and C6 (tumor cell glioma) was evaluated. Cells were cultured in RPMI medium and incubated with different concentrations of ASM-024. Cell proliferation was measured on days 3 and 6 by the MTT colorimetric assay. Absorbance at 576-690 nm was analyzed with a microplate reader and expressed as optical density (OD) and as a percentage of the value of corresponding untreated cells. The IC50 was determined as the drug concentration required to inhibit cell growth by 50% from a plot of percent cell viability from control untreated cells versus treated cells.
FIGS. 5A and 5B illustrate the observed results for the MDA-MB-231 mammary/breast gland adenocarcinoma assay. Cells were incubated with the dose drug shown and growth measured at the days indicated. In FIG. 5A the data is expressed as optical density (OD) and in FIG. 5B as a percentage of the value of corresponding untreated cells. P<0.05 compared to control at same day by Student t-test

[3] = system: PC3; experiment: Anti-proliferative MTT assay, PC3; details: Homo sapiens
Description: as §1

IC50 ([1]; H520, day 3 in culture, read-out: IC50 Day 3): 468 ± 287 µM
IC50 ([1]; H520, day 6 in culture, read-out: IC50 Day 6): 257 ± 257 µM
IC50 ([2]; 72 h, MDA-MB-231, day 3, read-out: IC50 Day 3): > 1000 µM
IC50 ([2]; 144 h, MDA-MB-231, day 6, read-out: IC50 Day 6): 661 ± 115 µM
IC50 ([3]; PC-3, 72 h, PC3, day 3, read-out: IC50 Day 3): > 700 µM
IC50 ([3]; PC-3, 144 h, PC3, day 6, read-out: IC50 Day 6): 176 ± 29 µM
SMILES: CC[N+]1(CC)CCCN(c2ccccc2)CC1.Cc1ccc(S(=O)(=O)[O-])cc1 [ASM-024, 1,1-Diethyl-4-phenyl-homopiperazinium Tosylate]
cell proliferation / cell growth inhibition (in words) ([1]; H520, day 3 and day 6, text on figures): dose-dependent decrease in cell proliferation
